Experimental data as given in patent US8518707B2, “Method of monitoring adsorbent bed breakthrough in a process for producing alkyl esters from vegetable or animal oil and from an aliphatic monoalcohol” (IFP Energies Novelles, priority 2008, dated 2013).

Key:
[1] = Solubility limit of glycerol in vegetable rape oil methyl ester (equilibrium with excess glycerol, GC per EN 14,214); type: physicochemical; conditions: solubility limit in vegetable rape oil methyl ester phase
Source text: It has therefore been necessary to determine it. Experimental measurements were therefore carried out on the vegetable rape oil methyl ester/glycerol system. The solubility measurements consisted in bringing together ester and glycerol in excess so as to obtain two distinct phases and to be sure the ester phase is saturated with glycerol, in a thermostat-controlled oven, at the selected temperature, long enough for equilibrium to be reached. A sample is then taken from the ester phase and analysed by gas chromatography according to the method of determining glycerol in ester described in the EN 14,214 standard.

[2] = Soluble glycerol in the ester stream after methanol evaporation (Esterfip-H process); type: physicochemical; conditions: methyl ester stream after alcohol evaporation, ambient temperature
Source text: In the Esterfip-H™ process developed by IFP and using a heterogeneous catalyst, separation between the glycerol and the ester produced occurs in several stages. In fact, methanol acting as a co-solubilizing agent for the methyl esters and the glycerol, the alcohol evaporation stage carried out at the reaction section outlet makes part of the glycerol present in the stream, in a proportion ranging between 0.1 and 5% by mass, insoluble. The soluble part represents, at ambient temperature, 500 to 700 ppm mass, the allowable maximum content set by the European standard being 200 ppm mass of free glycerol. Both the insoluble glycerol and part of the soluble glycerol therefore have to be separated. Separation is first performed through gravity decantation in a decanter drum. The ester stream flowing from the decanter is then sent to a coalescer. The glycerin phase stream is withdrawn at the bottom point of the coalescer. Methods allowing these two separation stages to be improved are described in the patent applications filed by the assignee under No. FR-07/04,711 and FR-07/04,715.

[3] = cited from earlier work

SMILES: OCC(O)CO [glycerol]
- Climit(glycerol) ([1]; T 20 °C): 320 ppm
- Climit(glycerol) ([1]; T 43 °C): 484 ppm
- Climit(glycerol) ([1]; T 61 °C): 813 ppm
- Climit(glycerol) ([1]; T 80 °C): 1233 ppm
- soluble part of glycerol in ester stream [2]: 500 to 700 ppm mass
- solubility in alcohols ([3]; alcohols): infinitely soluble
- solubility in benzene ([3]; benzene): totally insoluble
- solubility in ethers ([3]; ethers): little soluble
- solubility in water ([3]; water): infinitely soluble
